According to patent publication US9012458B2, “Antitumor agent using compounds having kinase inhibitory effect in combination” (Eisai R&D Management Co., Ltd., priority 2010, dated 2015):
Where a name gives a salt, the structure may show the parent alone.

Experiments:
Type in all cases: in vivo
[1] = tested on: human malignant melanoma cell line (SEKI); experiment: Combined effect in model animal transplanted with human malignant melanoma cell line (SEKI); settings: SEKI s.c. in nude mouse, Compound A 10 mg/kg, Compound B 100 mg/kg, oral once daily, average ± standard deviation
Experimental: (§1) The human malignant melanoma cell line SEKI (JCRB Cell bank) was cultured using a 10% FBS-containing RPM 1640 medium (SIGMA) in a 5% CO2 incubator under the condition of 37° C. When the cells reached a state of approximately 80% confluency, the cells were collected using trypsin-EDTA. To these cells, a Hanks' Balanced Salt Solution containing 50% Matrigel was added to prepare a suspension at 5.0×10^7 cells/mL. The cell suspension thus obtained was subcutaneously transplanted at the lateral side of the body of a nude mouse (CAnN.Cg-Foxn1nu/CrlCrlj, Charles River Laboratories Japan, Inc.) in an amount of 0.1 mL, where each group contained six mice. From 11 days after the transplantation, Compound A (10 mg/kg, once daily, for 17 days) and Compound B (100 mg/kg, once daily, for 17 days) were orally administered, either individually or both in a row.
(§2) Setting the initial day of administration at Day 0, the major axis and the minor axis of a tumor developed in each mouse were measured using Digimatic caliper (Mitsutoyo Corporation) thereafter on Day 3, 7, 10, 14, and 17.
(§3) The tumor volume and the relative tumor volume were calculated according to the equations below. TV=major axis (mm)×minor axis^2 (mm^2)/2 RTV=TV on the day of measurement/TV on the initial day of administration

[2] = tested on: human pancreatic cancer cell line (KP-4); experiment: Combined effect in model animal transplanted with human pancreatic cancer cell line (KP-4); settings: KP-4 s.c. in nude mouse, Compound A 10 mg/kg, Compound B 100 mg/kg, oral once daily, average ± standard deviation
Experimental: as §1, with “pancreatic cancer” for “malignant melanoma”, “KP-4 (acquired from National Hospital Organization Kyushu Cancer Center)” for “SEKI (JCRB Cell bank)”, “RPMI” for “RPM”
as §2, §3

[3] = tested on: human gastric cancer cell line (IM95m); experiment: Combined effect in model animal transplanted with human gastric cancer cell line (IM95m); settings: IM95m s.c. in nude mouse, Compound A 10 mg/kg, Compound B 100 mg/kg, oral once daily, average ± standard deviation
Experimental: The human gastric cancer cell line IM95m (Health Science Research Resources Bank) was cultured using a DMEM medium (Wako Pure Chemical Industries, Ltd) containing […] glucose, 10% FBS, and 10 μg/mL insulin in a 5% CO2 incubator under the condition of 37° C. When the cells reached a state of approximately 80% confluency, the cells were collected using trypsin-EDTA. To these cells, a Hanks' Balanced Salt Solution containing 50% Matrigel was added to prepare a suspension at 1.0×10^8 cells/mL. The cell suspension thus obtained was subcutaneously transplanted at the lateral side of the body of a nude mouse (CAnN.Cg-Foxn1nu/CrlCrlj, Charles River Laboratories Japan, Inc.) in an amount of 0.1 mL, where each group contained six mice. From 13 days after the transplantation, Compound A (10 mg/kg, once daily, for 21 days) and Compound B (100 mg/kg, once daily, for 21 days) were orally administered continuously, either individually or both in a row.
Setting the initial day of administration at Day 0, the major axis and the minor axis of a tumor developed in each mouse were measured using Digimatic caliper (Mitsutoyo Corporation) thereafter on Day 4, 7, 11, 14, 18 and 21.
as §3

[4] = tested on: human glioblastoma cell line (U87MG); experiment: Combined effect in model animal transplanted with human glioblastoma cell line (U87MG); settings: U87MG s.c. in nude mouse, Compound A 10 mg/kg, Compound B 100 mg/kg, oral once daily, average ± standard deviation
Experimental: The human glioblastoma cell line (U87MG) (ATCC) was cultured using a 10% FBS-containing E-MEM medium (SIGMA) in a 5% CO2 incubator under the condition of 37° C. When the cells reached a state of approximately 80% confluency, the cells were collected using trypsin-EDTA. To these cells, a Hanks' Balanced Salt Solution containing 50% Matrigel was added to prepare a suspension at a concentration of 5.0×10^7 cells/mL. The cell suspension thus obtained was subcutaneously transplanted at the lateral side of the body of a nude mouse (CAnN.Cg-FOXn1nu/CrlCrlj, Charles River Laboratories Japan, Inc.) in an amount of 0.1 mL, where each group contained six mice. Compound A (10 mg/kg, once daily, for 21 days) and Compound B (100 mg/kg, once daily, for 21 days) were orally administered, either individually or both in a row.
Setting the initial day of administration at Day 0, the major axis and the minor axis of a tumor developed in each mouse were measured using Digimatic caliper (Mitsutoyo Corporation) thereafter on Day 2, 5, 7, 9, 12, 14, 16, 19, and 21.
as §3

Row | SMILES | RTV (relative tumor volume) Day 3 [1] | RTV (relative tumor volume) Day 7 [1] | RTV (relative tumor volume) Day 10 [1] | RTV (relative tumor volume) Day 14 [1] | RTV (relative tumor volume) Day 17 [1] | RTV (relative tumor volume) Day 3 [2] | RTV (relative tumor volume) Day 7 [2] | RTV (relative tumor volume) Day 10 [2] | RTV (relative tumor volume) Day 14 [2] | RTV (relative tumor volume) Day 17 [2] | RTV (relative tumor volume) Day 4 [3] | RTV (relative tumor volume) Day 7 [3] | RTV (relative tumor volume) Day 11 [3] | RTV (relative tumor volume) Day 14 [3] | RTV (relative tumor volume) Day 18 [3] | RTV (relative tumor volume) Day 21 [3] | RTV (relative tumor volume) Day 2 [4] | RTV (relative tumor volume) Day 5 [4] | RTV (relative tumor volume) Day 7 [4] | RTV (relative tumor volume) Day 9 [4] | other results
1 | COc1cc2nccc(Oc3ccc(NC(=O)NC4CC4)c(Cl)c3)c2cc1C(N)=O [Compound A, 4-(3-chloro-4-(cyclopropylaminocarbonyl)aminophenoxy)-7-methoxy-6-quinolinecarboxamide mesylate] | 1.71 ± 0.19 | 2.88 ± 0.35 | 3.74 ± 0.53 | 5.06 ± 0.49 | 5.92 ± 0.50 | 1.67 ± 0.16 | 2.89 ± 0.74 | 3.77 ± 1.26 | 4.83 ± 1.75 | 5.81 ± 2.17 | 1.53 ± 0.12 | 2.10 ± 0.18 | 2.65 ± 0.37 | 2.65 ± 0.49 | 2.80 ± 0.47 | 3.18 ± 0.57 | 0.95 ± 0.08 | 1.27 ± 0.07 | 1.59 ± 0.16 | 1.85 ± 0.13 | RTV (relative tumor volume) Day 12 [4]: 3.29 ± 0.32; RTV (relative tumor volume) Day 14 [4]: 4.76 ± 0.49; RTV (relative tumor volume) Day 16 [4]: 6.19 ± 0.95; RTV (relative tumor volume) Day 19 [4]: 9.60 ± 1.99; RTV (relative tumor volume) Day 21 [4]: 11.53 ± 2.57
2 | CN1CCN(C2CCN(C(=O)Nc3cc(Oc4ccc(NC(=O)C5(C(=O)Nc6ccc(F)cc6)CC5)c(F)c4)ccn3)CC2)CC1 [Compound B, N-(2-fluoro-4-{[2-({[4-(4-methylpiperazin-1-yl)piperidin-1-yl]carbonyl}amino)pyridin-4-yl]oxy}phenyl)-N′-(4-fluorophenyl)cyclopropane-1,1-dicarboxamide tartrate] | 1.76 ± 0.22 | 2.93 ± 0.57 | 4.06 ± 0.85 | 5.23 ± 0.20 | 5.80 ± 1.35 | 1.71 ± 0.26 | 3.33 ± 1.06 | 4.72 ± 1.55 | 6.53 ± 2.19 | 9.05 ± 3.71 | 1.12 ± 0.08 | 1.24 ± 0.15 | 1.75 ± 0.17 | 1.85 ± 0.16 | 3.09 ± 0.48 | 4.02 ± 1.05 | 0.69 ± 0.05 | 0.61 ± 0.05 | 0.56 ± 0.10 | 0.57 ± 0.07 | RTV (relative tumor volume) Day 12 [4]: 0.65 ± 0.08; RTV (relative tumor volume) Day 14 [4]: 0.73 ± 0.12; RTV (relative tumor volume) Day 16 [4]: 0.93 ± 0.13; RTV (relative tumor volume) Day 19 [4]: 1.65 ± 0.37; RTV (relative tumor volume) Day 21 [4]: 2.23 ± 0.51
